“Also recorded” adds a separate entry of the source. Where two headings read alike, the source gives them in different places.
Key:
hTRPA1 [1] = biological target: T1, hTRPA1 (Homo sapiens, UniProt O75762); assay: Membrane potential dye fluorescence assay (FLIPR/FLEXstation), activation of hTRPA1 in transfected HEK293 cells; type: cell-based; settings: for TRPA1 activation / agonist activity (in words): hTRPA1 HEK293 cells, increase in fluorescence of membrane potential dye
T1 construct: The full length hTRPA1 was amplified by PCR with Kpn1 and Xho1 restriction enzyme sites; expressed in transfected cells; also transient transfection
T1 sequence (O75762 whole entry): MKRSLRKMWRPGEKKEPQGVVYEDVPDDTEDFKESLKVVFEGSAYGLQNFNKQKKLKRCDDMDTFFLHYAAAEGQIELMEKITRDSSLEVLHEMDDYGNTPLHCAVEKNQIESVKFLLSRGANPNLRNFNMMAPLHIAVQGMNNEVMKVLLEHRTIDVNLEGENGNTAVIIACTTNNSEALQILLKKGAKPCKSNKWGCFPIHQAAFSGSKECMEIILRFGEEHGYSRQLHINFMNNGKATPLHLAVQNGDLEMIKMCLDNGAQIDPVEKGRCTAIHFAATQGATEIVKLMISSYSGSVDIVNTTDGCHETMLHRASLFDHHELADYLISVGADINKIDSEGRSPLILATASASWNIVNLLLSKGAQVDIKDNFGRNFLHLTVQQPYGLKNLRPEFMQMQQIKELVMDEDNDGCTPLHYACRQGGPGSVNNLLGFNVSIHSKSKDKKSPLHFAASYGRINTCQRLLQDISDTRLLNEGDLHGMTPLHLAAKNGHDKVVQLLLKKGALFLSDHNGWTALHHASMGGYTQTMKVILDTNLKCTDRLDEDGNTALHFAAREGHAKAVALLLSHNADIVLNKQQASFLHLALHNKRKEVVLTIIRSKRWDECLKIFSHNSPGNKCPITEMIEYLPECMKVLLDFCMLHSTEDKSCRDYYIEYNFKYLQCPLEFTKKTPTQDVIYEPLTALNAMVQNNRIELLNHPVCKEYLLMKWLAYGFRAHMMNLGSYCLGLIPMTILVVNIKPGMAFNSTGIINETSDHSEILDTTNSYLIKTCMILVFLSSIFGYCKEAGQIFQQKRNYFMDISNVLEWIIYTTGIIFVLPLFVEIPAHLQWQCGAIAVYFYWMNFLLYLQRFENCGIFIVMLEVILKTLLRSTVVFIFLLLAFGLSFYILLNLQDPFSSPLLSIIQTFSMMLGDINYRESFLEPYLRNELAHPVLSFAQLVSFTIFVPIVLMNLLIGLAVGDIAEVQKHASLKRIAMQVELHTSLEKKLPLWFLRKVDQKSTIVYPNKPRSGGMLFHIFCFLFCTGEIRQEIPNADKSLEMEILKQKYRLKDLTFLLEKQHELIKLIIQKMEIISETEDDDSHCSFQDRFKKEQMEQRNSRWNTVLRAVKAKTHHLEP
Protocol: Once expression of TRPA1 was confirmed, 100 μl of the Blue or Red FMP dye (Molecular Devices) was added to each well of plates seeded with the transiently transfected cells. The plate was then incubated in a 37° C./5% CO2 incubator for 1 hour. The plate was read in a FLEXStation microplate reader (Molecular Devices) with an excitation of 530 nm and an emission of 565 nm. The fluorescence was monitored for 3 minutes upon exposure of the cells to a TRPA1 activating agent (e.g., cinnamaldehyde).
(§1) Samples in a 384-well plate were evaluated in a 5 minute assay on the FLIPR-Tetra™ (Molecular Devices). The assay was performed on a FLIPR™ using the excitation 510-545 nm and emission 565-625 nm filter sets. TRPA1-Transfected HEK cells, 15,000/well, were seeded overnight on poly-D-lysine coated 384 well plates in 20 μl media. Membrane Potential Assay Dye Red (Molecular Devices), 20 μl/well, was added and the plates incubated for 1 hour in a 37° C. and 5% CO2 incubator. The plates were then removed from the incubator and equilibrated to room temperature for 15 minutes before reading on the FLIPR®. The plates were read on the FLIPR® for a total of 3 minutes. Baseline fluorescence was obtained on the FLIPR® for 10 seconds followed by addition (typically 10 μl) of each agonist by the FLIPR® and read for an additional 2 minutes and 50 seconds.

parental HEK293 cells = assay: Membrane potential dye fluorescence assay in parental (non-transfected) HEK293 cells; type: cell-based, human; settings: cells not expressing TRPA1
hTRPV1 = biological target: T2, hTRPV1 (Homo sapiens, UniProt Q8NER1); assay: Membrane potential dye fluorescence assay, HEK293 cells expressing hTRPV1; type: cell-based; settings: HEK293, increasing concentrations, FIG. 6
T2 construct: expressed in transfected cells
T2 sequence (Q8NER1 whole entry): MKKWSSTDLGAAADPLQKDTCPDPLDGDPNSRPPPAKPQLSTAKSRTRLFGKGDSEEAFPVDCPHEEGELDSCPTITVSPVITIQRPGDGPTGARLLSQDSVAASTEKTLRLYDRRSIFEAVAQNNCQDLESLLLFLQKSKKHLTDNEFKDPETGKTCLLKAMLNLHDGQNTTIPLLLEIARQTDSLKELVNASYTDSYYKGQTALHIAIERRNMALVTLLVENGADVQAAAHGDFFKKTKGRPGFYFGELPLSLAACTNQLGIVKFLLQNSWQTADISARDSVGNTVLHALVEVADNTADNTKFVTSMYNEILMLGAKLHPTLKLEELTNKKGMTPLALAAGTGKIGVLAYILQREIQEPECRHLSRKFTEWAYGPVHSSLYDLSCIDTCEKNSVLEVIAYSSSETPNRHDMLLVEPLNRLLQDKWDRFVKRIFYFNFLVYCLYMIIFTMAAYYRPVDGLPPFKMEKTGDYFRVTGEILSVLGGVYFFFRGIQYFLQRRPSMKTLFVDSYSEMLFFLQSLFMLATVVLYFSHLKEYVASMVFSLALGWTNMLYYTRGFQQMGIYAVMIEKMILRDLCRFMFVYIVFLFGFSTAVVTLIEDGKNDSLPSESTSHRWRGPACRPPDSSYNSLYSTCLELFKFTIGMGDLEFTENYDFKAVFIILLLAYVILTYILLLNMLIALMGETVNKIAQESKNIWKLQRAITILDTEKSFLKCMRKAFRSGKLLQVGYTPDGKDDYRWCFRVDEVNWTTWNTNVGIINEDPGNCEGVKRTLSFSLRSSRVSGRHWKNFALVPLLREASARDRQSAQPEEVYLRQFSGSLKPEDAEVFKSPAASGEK
Protocol: as §1
(§2) HEK293 cells were stably transfected with one of hTRPA1, hTRPV1 or hTRPM5. CHO cells were stably transfected with one of hTRPM4B or TRPM5. Parental HEK293 and CHO cells were also used as a negative control.

hTRPM4B = biological target: T3, hTRPM4B (Homo sapiens, UniProt Q8TD43); assay: Membrane potential dye fluorescence assay, CHO cells expressing hTRPM4B; type: cell-based; settings: CHO, increasing concentrations, FIG. 6
T3 construct: expressed in transfected cells
T3 sequence (Q8TD43 whole entry): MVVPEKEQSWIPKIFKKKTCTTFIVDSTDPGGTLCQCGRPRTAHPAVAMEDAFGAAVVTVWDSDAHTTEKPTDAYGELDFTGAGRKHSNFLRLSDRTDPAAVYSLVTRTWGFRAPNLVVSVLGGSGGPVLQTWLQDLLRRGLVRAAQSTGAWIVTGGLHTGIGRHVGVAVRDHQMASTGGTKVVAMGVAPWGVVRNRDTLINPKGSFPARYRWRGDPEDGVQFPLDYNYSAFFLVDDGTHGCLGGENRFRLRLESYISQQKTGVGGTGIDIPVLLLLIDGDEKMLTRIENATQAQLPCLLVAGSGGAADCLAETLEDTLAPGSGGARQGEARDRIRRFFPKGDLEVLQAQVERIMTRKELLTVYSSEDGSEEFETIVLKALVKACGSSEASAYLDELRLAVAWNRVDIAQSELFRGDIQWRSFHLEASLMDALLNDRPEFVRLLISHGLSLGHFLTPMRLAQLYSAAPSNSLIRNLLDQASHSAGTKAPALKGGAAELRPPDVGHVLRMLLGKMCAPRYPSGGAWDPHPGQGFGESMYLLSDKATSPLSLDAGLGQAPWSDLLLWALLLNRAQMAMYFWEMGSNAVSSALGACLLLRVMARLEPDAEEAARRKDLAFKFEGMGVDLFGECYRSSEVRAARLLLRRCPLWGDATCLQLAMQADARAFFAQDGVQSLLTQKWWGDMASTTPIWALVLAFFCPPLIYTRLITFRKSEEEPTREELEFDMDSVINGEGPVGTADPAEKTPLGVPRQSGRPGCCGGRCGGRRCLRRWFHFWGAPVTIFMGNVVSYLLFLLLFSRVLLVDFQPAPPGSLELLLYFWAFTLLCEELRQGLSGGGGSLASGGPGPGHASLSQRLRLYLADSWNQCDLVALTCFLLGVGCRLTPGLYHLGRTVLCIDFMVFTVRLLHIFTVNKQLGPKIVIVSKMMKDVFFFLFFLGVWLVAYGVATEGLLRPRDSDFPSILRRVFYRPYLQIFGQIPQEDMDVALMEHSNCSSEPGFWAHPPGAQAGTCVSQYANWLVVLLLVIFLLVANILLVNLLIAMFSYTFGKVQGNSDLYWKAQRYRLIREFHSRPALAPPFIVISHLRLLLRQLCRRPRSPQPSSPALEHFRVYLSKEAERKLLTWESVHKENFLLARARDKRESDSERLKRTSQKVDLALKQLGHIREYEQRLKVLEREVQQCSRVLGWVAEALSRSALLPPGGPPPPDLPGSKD
Protocol: as §1, §2

hTRPM5 = biological target: T4, hTRPM5 (Homo sapiens, UniProt Q9NZQ8); assay: Membrane potential dye fluorescence assay, HEK293 or CHO cells expressing hTRPM5; type: cell-based; settings: increasing concentrations, FIG. 6
T4 construct: expressed in transfected cells
T4 sequence (Q9NZQ8 1-1165): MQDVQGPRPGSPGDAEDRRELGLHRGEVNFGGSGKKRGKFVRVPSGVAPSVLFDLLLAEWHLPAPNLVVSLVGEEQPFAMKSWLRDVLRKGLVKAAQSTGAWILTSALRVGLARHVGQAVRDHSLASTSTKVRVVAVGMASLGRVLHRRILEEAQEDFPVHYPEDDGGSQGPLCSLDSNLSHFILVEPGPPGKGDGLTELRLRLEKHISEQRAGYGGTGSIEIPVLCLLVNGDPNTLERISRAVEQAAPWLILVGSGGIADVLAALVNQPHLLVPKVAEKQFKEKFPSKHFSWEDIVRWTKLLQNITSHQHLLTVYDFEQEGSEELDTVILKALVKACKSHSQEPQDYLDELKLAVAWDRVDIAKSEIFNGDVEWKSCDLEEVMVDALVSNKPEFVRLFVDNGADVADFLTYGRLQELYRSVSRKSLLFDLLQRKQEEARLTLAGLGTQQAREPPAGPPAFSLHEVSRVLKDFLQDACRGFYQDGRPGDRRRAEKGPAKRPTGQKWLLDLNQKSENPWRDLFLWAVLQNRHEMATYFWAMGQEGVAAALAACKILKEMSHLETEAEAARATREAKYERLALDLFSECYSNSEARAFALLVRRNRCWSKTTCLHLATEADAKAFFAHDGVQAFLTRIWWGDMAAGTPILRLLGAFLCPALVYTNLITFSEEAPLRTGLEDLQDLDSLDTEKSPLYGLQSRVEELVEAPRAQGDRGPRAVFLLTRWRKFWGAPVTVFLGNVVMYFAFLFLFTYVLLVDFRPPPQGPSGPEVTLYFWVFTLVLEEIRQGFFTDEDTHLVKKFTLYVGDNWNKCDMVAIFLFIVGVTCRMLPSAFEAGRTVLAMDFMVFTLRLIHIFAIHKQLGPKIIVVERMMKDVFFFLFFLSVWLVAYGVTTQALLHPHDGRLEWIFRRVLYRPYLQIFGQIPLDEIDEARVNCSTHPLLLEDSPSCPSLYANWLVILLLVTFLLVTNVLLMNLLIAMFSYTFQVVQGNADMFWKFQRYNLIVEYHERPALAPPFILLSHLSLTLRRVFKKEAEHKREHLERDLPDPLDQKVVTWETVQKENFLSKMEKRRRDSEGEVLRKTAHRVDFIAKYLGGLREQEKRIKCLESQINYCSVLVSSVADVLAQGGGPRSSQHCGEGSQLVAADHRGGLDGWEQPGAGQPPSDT
Protocol: as §1, §2

hTRPA1 [2] = biological target: T1, hTRPA1; assay: Modulation of agonist-activated TRPA1 in HEK293 cells expressing hTRPA1 (membrane potential dye); type: cell-based; settings: for inhibition of thymol activated TRPA1 (in words): HEK293 cells
Protocol: as §1
Appropriate control experiments are performed and can easily be determined by the skilled artisan.
HEK293 cells and CHO cells expressing TRPA1 were subjected to the assay described in Example 2.

hTRPA1 [3] = biological target: T1, hTRPA1; assay: siRNA knockdown of hTRPA1 in hTRPA1 HEK293 cells, membrane potential dye response; type: cell-based; settings: increasing concentrations
Protocol: HEK293 cells were transiently transfected with one of siRNA for hTRPA1, and one of Silencer pre-designed and validated siRNA (Ambion), GAPDH or negative siRNA control. 1×10^6 hTRPA1 stably transfected HEK 293 cells were plated in 35 mm dishes overnight. The next day 10 μM of each siRNA was transfected into these cells using siPORT Amine (Ambion) and incubated overnight. The following day, transfected cells were trypsinized and seeded into 384-well black, clear bottom, poly-D-lysine plates (Corning) at a density of 15,000 cells/well in a 20 μl volume and incubated in a 37° C./5% CO2 incubator overnight.
The cells were then loaded with membrane potential sensitive dye and subjected to the fluorescence assay described in Example 2.

[4] = HEK293 cells stably transfected with hTRPA1, FMP dye, FLIPR

Row | SMILES | TRPA1 activation / agonist activity (in words) (hTRPA1 [1]) | inhibition of thymol activated TRPA1 (in words) (hTRPA1 [2]) | other results
1 | Cc1ccc(C(C)(C)C)c(O)c1 [2-tert-butyl-5-methylphenol] | generated an increase in relative fluorescence |  | EC50 (hTRPA1 [1]; [4]): 4 ± 2 µM; response of parental HEK293 cells (in words) (parental HEK293 cells): background fluorescence; response of cells expressing hTRPV1 (in words) (hTRPV1): did not generate the same increase in relative fluorescence; response of cells expressing hTRPM4B (in words) (hTRPM4B): did not generate the same increase in relative fluorescence; response of cells expressing hTRPM5 (in words) (hTRPM5): did not generate the same increase in relative fluorescence
2 | CC1(C)[C@@H]2C[C@H]1[C@@](C)(O)[C@@H](O)C2 [Pinanediol] | Neither isomer (+ shown) had a significant agonist activity until 10 mM | both inhibited TRPA1 activation at 1 mM | 
3 | C=C(C)[C@H]1CC=C(C)CC1 [limonene] | are TRPA1 agonists; also recorded: have agonist activity | do not act as agonists of thymol activation of TRPA1 | 
4 | CC1(C(=O)O)CCC(C(=O)O)C1(C)C (stereo not drawn) [camphoric acid] | are TRPA1 agonists; also recorded: have agonist activity | do not act as agonists of thymol activation of TRPA1 | 
5 | CC1(C)C2CCC1(CS(N)(=O)=O)C(=O)C2 (stereo not drawn) [camphorsufomamide] | have agonist activity | do not act as agonists of thymol activation of TRPA1 | 
6 | O=CC=Cc1ccccc1 [cinnamaldehyde] |  |  | EC50 (hTRPA1 [1]; [4]): 7 µM; response of parental HEK293 cells (in words) (parental HEK293 cells): no change in activation; fluorescence response of cells transfected with hTRPA1 siRNA versus GAPDH or negative siRNA control (in words) (hTRPA1 [3]): did not increase as much as
7 | CC12CCC(C(=O)C1=O)C2(C)C (stereo not drawn) [camphorquinone] | triggers an agonist response; also recorded: are TRPA1 agonists; also recorded: have agonist activity | do not act as agonists of thymol activation of TRPA1 | EC50 (hTRPA1 [1]; TRPA1 HEK293 cells, FIGS. 8C and 8D, read-out: EC50 of agonist response in TRPA1): ~300 µM; effect on subsequent thymol and cinnamaldehyde responses (in words) (hTRPA1 [2]; TRPA1 transfected HEK293 cells, compound first, then agonist): desensitizes thymol and cinnamaldehyde responses
